Reference: US20250186448A1 (Mezzion Pharma Co., Ltd., priority 2021, published 2025)
“And” between values parts separate entries of the source, which are not always exact repeats. Equal values may be shown once.

Legend:
[1] = system: adolescents with Single Ventricle Heart Disease who underwent Fontan palliation; experiment: FALD study (FUEL Extension): Enhanced Liver Fibrosis (ELF) score from serum HA, PIIINP, TIMP-1; assay type: in vivo, human; parameters: key to Baseline ELF, Mean (SD) / ELF Score, Post Baseline: ELF score: <7.7 none/mild, 7.7-9.8 moderate, 9.8-11.3 severe, >11.3 cirrhosis
Excerpt: The FALD study, ClinicalTrials.gov Identifier: NCT03430583, which is incorporated herein by reference in its entirety, was an open-label extension study that integrated with the FUEL Extension Trial. […] Both the U− cohort and the U+ cohort had liver stiffness measured by ultrasound and MR elastography (where available), and ELF biomarkers analyzed, as described above. […] The Enhanced Liver Fibrosis (ELF) scores were based on the serum levels of hyaluronic acid (HA), amino-terminal propeptide of type III collagen (PIIINP), and tissue inhibitor of metalloproteinase-1 (TIMP-1). Testing was performed by the FUEL-OLE Central Laboratory using the serum samples. In accordance with prior studies, we assigned those patients with scores of <7.7 to the no-fibrosis or mild fibrosis group, 7.7-9.8 to the moderate fibrosis group, 9.8-11.3 to the severe fibrosis group, and >11.3 to the cirrhosis group. The primary outcome measure of the FALD study was the range of liver stiffness in adolescents with Single Ventricle Heart Disease who underwent Fontan palliation. Secondary outcome measures included the effect of drug therapy on liver stiffness, and the effect of drug therapy on Enhanced Liver Fibrosis (ELF) score. See Clinical Trials.gov identifier NCT03430583, at p. 3. It is to be understood that present invention contemplates udenafil drug products that are therapeutically equivalent to the udenafil drug products of the present invention.

[2] = system: adolescents with Single Ventricle Heart Disease who underwent Fontan palliation; experiment: FALD study: liver stiffness by ultrasound shear wave elastography (SWE); assay type: in vivo, human; parameters: USWE, Post Baseline: unit not given beside the values; USWE, Change from Baseline: unit not given here; conditions: Cohort U− (udenafil for 52 weeks), individual subject
Excerpt: Ultrasound SWE uses one or more acoustic radiation force impulses (ARFI) or “push pulses” to generate shear waves in the tissue of interest. These shear waves can be tracked and their speed measured, with increasing tissue stiffness associated with increasing tissue shear wave speed. Shear wave speed can be mathematically converted to both shear and Young's moduli (in kPa), mechanical properties related to tissue rigidity and elasticity. There are two major forms of ultrasound SWE-“point” and “2D”. Point ultrasound SWE provides a very focal estimate of liver stiffness using a small region-of-interest, wh[…] ultrasound SWE provides a regional color parameteric map (elastogram) of image stiffness and allows measurement over a much larger area of the liver. The FALD study, ClinicalTrials.gov Identifier: NCT03430583, which is incorporated herein by reference in its entirety, was an open-label extension study that integrated with the FUEL Extension Trial. […] Both the U- cohort and the U+ cohort had liver stiffness measured by ultrasound and MR elastography (where available), and ELF biomarkers analyzed, as described above. […] The primary outcome measure of the FALD study was the range of liver stiffness in adolescents with Single Ventricle Heart Disease who underwent Fontan palliation. Secondary outcome measures included the effect of drug therapy on liver stiffness, and the effect of drug therapy on Enhanced Liver Fibrosis (ELF) score. See Clinical Trials.gov identifier NCT03430583, at p. 3. It is to be understood that present invention contemplates udenafil drug products that are therapeutically equivalent to the udenafil drug products of the present invention.

[3] = Cohort U+ & U− Pooled, baseline ELF Cirrhosis (N 17)
[4] = Cohort U+ & U− Pooled, baseline ELF moderate fibrosis (N 20)
[5] = Cohort U+ & U− Pooled, baseline ELF moderate fibrosis (N 20), listed as udenafil
[6] = Cohort U+ & U− Pooled, baseline ELF severe fibrosis (N 36)
[7] = Cohort U+, baseline ELF Cirrhosis (N 9)
[8] = Cohort U+, baseline ELF moderate fibrosis (N 8)
[9] = Cohort U+, baseline ELF severe fibrosis (N 15)
[10] = Cohort U− (udenafil for 52 weeks), individual subject
[11] = Cohort U−, baseline ELF Cirrhosis (N 8)
[12] = Cohort U−, baseline ELF moderate fibrosis (N 12)
[13] = Cohort U−, baseline ELF moderate fibrosis (N 12), listed as udenafil
[14] = Cohort U−, baseline ELF severe fibrosis (N 21)
[15] = FALD, cohort U+ (78 weeks udenafil)

CCCOc1ccc(S(=O)(=O)NCCC2CCCN2C)cc1-c1nc2c(CCC)nn(C)c2c(=O)[nH]1 (stereo not shown) [Udenafil, udenafil]
Patients with Improved ELF fibrosis category ([1]; Cohort U+ & U− Pooled, 41/73): 41/73 (56%) Improved | Patients with post baseline ELF score Mild, n (%) [1, 3]: 0 | Patients with post baseline ELF score Sev, n (%) [1, 3]: 13 (76%) | Patients with post baseline ELF score Sev, n (%) ([1]; Cohort U+ & U− Pooled, baseline ELF Cirrhosis (N 17), listed as udenafil): 6 | Patients with post baseline ELF score Mild, n (%) [1, 4]: 1 (5%) | Patients with post baseline ELF score Sev, n (%) [1, 4]: 8 (40%) | Patients with post baseline ELF score Mild, n (%) [1, 5]: 1 | Patients with post baseline ELF score Sev, n (%) [1, 5]: 8 | Patients with post baseline ELF score Mild, n (%) [1, 6]: 0 | Patients with post baseline ELF score Sev, n (%) [1, 6]: 13 (36%) | Patients with post baseline ELF score Sev, n (%) ([1]; Cohort U+ & U− Pooled, baseline ELF severe fibrosis (N 36), listed as udenafil): 8 | Patients with Improved ELF fibrosis category ([1]; Cohort U+, 19/32): 19/32 (59%) Improved | Patients with post baseline ELF score Mild, n (%) [1, 7]: 0 | Patients with post baseline ELF score Sev, n (%) [1, 7]: 7 (78%) | Patients with post baseline ELF score Sev, n (%) ([1]; Cohort U+, baseline ELF Cirrhosis (N 9), listed as udenafil): 7 | Patients with post baseline ELF score Mild, n (%) [1, 8]: 0 | Patients with post baseline ELF score Sev, n (%) [1, 8]: 0 | Patients with post baseline ELF score Mild, n (%) [1, 9]: 0 | Patients with post baseline ELF score Sev, n (%) [1, 9]: 5 (33%) | Patients with post baseline ELF score Sev, n (%) ([1]; Cohort U+, baseline ELF severe fibrosis (N 15), listed as udenafil): 5 | ELF Score, % Change from Baseline [1, 10]: −7.61% and −11.19% and −20.06% and −15.92% and 10.85% and 9.365% | ELF Score, Change from Baseline [1, 10]: −0.78 and −1.22 and −2.03 and −1.85 and 0.97 and 0.9 and 0.26 | ELF Score, Post Baseline ([1]; Cohort U− (udenafil for 52 weeks), individual subject, Post Baseline visit (52 week)): 9.47 and 9.68 and 8.09 and 9.77 and 9.91 and 10.51 and 9.67 | Patients with Improved ELF fibrosis category ([1]; Cohort U−, 22/41): 22/41 (54%) Improved | Patients with post baseline ELF score Mild, n (%) [1, 11]: 0 | Patients with post baseline ELF score Sev, n (%) [1, 11]: 6 (75%) | Patients with post baseline ELF score Sev, n (%) ([1]; Cohort U−, baseline ELF Cirrhosis (N 8), listed as udenafil): 6 | Patients with post baseline ELF score Mild, n (%) [1, 12]: 1 (8%) | Patients with post baseline ELF score Sev, n (%) [1, 12]: 8 (67%) | Patients with post baseline ELF score Mild, n (%) [1, 13]: 1 | Patients with post baseline ELF score Sev, n (%) [1, 13]: 8 | Patients with post baseline ELF score Mild, n (%) [1, 14]: 0 | Patients with post baseline ELF score Sev, n (%) [1, 14]: 8 (38%) | Patients with post baseline ELF score Sev, n (%) ([1]; Cohort U−, baseline ELF severe fibrosis (N 21), listed as udenafil): 8 | ELF Percent Change: Week 52-Baseline, Median ([1]; FALD, Total): −7.2% | Week 52 ELF, Median ([1]; FALD, Total): 9.7 | Baseline ELF, Mean (SD) ([1]; FALD, Total (U+ and U−)): 10.4 | Week 52 ELF, Mean (SD) ([1]; FALD, Total (U+ and U−)): 9.8 | ELF Percent Change: Week 52-Baseline, Mean (SD) ([1]; FALD, Total, p <0.0001 vs 0): −6.8 (7.69) % | Week 52 ELF, Median ([1]; FALD, cohort U+): 9.6 | Baseline ELF, Mean (SD) ([1]; FALD, cohort U+ (6 months udenafil in FUEL before baseline)): 10.5 | Baseline ELF, Mean (SD) ([1]; FALD, cohort U+ (6 months udenafil in FUEL before baseline), listed as udenafil): 10.5 | Week 52 ELF, Mean (SD) ([1]; FALD, cohort U+ (18 months udenafil, 87.5 mg twice daily)): 9.7 | Week 52 ELF, Mean (SD) ([1]; FALD, cohort U+ (18 months udenafil, 87.5 mg twice daily), listed as udenafil): 9.7 | Patients with improved ELF scores [1, 15]: About 94% | Subjects with a decrease (improvement) in ELF score [1, 15]: all but 2 of 31 | ELF Percent Change: Week 52-Baseline, Mean (SD) ([1]; FALD, cohort U+, p <0.0001 vs 0): −8.0 (5.56) % | Average improvement of ELF score, baseline to week 52 ([1]; FALD, cohort U+, p=0.0001): approximately 8% | ELF Percent Change: Week 52-Baseline, Median ([1]; FALD, cohort U−): −6.1% | Week 52 ELF, Median ([1]; FALD, cohort U−): 9.9 | Week 52 ELF, Mean (SD) ([1]; FALD, cohort U− (1 year udenafil, 87.5 mg twice daily)): 9.8 | Week 52 ELF, Mean (SD) ([1]; FALD, cohort U− (1 year udenafil, 87.5 mg twice daily), listed as udenafil): 9.8 | Subjects with a decrease (improvement) in ELF score, number ([1]; FALD, cohort U− (52 weeks udenafil), of 40 subjects): about 30 | Baseline ELF, Mean (SD) ([1]; FALD, cohort U− (udenafil-naïve at baseline)): 10.3 | Baseline ELF, Mean (SD) ([1]; FALD, cohort U− (udenafil-naïve at baseline), listed as udenafil): 10.3 | Average improvement of ELF score, baseline to week 52 ([1]; FALD, cohort U−, based on paired data): about 5.9% | ELF Percent Change: Week 52-Baseline, Mean (SD) ([1]; FALD, cohort U−, p 0.0001 vs 0): −5.9 (8.98) % | Subjects with an improved ELF score ([1]; FALD, overall (U+ and U−)): about 84% | USWE, % Change from Baseline [2]: −2.439% and −7.692% and 6.011% and 20.92% and −0.9302% and −22.07% and −1.22% | USWE, Change from Baseline [2]: −0.06 and −0.13 and 0.11 and 0.41 and −0.02 (2×) and −0.49 and 0.09 | USWE, Post Baseline ([2]; Post Baseline visit (52 week)): 2.4 and 1.56 and 1.94 and 2.37 and 2.13 and 1.73 and 1.62 and 2.08
